Drawing on article PMC7913460, “Targeting hydroxycinnamoyl CoA: shikimate hydroxycinnamoyl transferase for lignin modification in Brachypodium distachyon” (Biotechnology for Biofuels, 2021), this text covers Km for two compounds.

Holding throughout (type): biochemical, Medicago truncatula
Test [1] deals with T1, MtHCT1.
T1 construct: gene HCT1
The test is described as follows: HPLC product assay, forward HCT reaction. To be noted: 500 µM shikimic acid, 100 mM sodium phosphate pH 7.5, 500 µM DTT; kcat apparent. From the text: HPLC product assay, forward HCT reaction on MtHCT1

Test [2] deals with T2, MtHCT2.
T2 construct: gene HCT2
The test is described as follows: HPLC product assay, forward HCT reaction. The following applies: 500 µM shikimic acid, 100 mM sodium phosphate pH 7.5, 500 µM DTT; kcat apparent. The text has this:
HPLC product assay, forward HCT reaction on MtHCT2

Test [3] deals with T2, MtHCT2. The test is described as follows: HPLC product assay, reverse HCT reaction. The following applies: 500 µM CoA, 100 mM sodium phosphate pH 7.5, 500 µM DTT; kcat apparent; substrate tested 20 to 400 µM. The text has this:
HPLC product assay, reverse HCT reaction on MtHCT2

The test system of test [4] is T1, MtHCT1. The test is described as follows: HPLC product assay, reverse HCT reaction. The following applies: 500 µM CoA, 100 mM sodium phosphate pH 7.5, 500 µM DTT; kcat apparent; substrate tested 20 to 400 µM. The text has this:
HPLC product assay, reverse HCT reaction on MtHCT1

As to `CC(C)(COP(=O)(O)OP(=O)(O)OC[C@H]1O[C@@H](n2cnc3c(N)ncnc32)[C@H](O)[C@@H]1OP(=O)(O)O)[C@@H](O)C(=O)NCCC(=O)NCCSC(=O)/C=C/c1ccc(O)cc1` [4-coumaroyl CoA], the Km in the test on MtHCT1 [1] was found to be 40.6 µM; with MtHCT2 [2] it was 44.3 µM.

Regarding `O=C(/C=C/c1ccc(O)c(O)c1)O[C@@H]1CC(C(=O)O)=C[C@@H](O)[C@H]1O` [caffeoyl shikimate], the Michaelis-Menten constant (Km) was 139 µM in the test with MtHCT2 [3] and 148 µM in the test on MtHCT1 [4].
